Paper PMC10489073 (Molecules, 2023)

How the values were obtained:
P3x63Ag8.653 = assay: Cell proliferation analysis (MTT); type: cell-based, murine; details: Mus musculus, 48 h, read-out: Anti-proliferative activity IC50, P3x63Ag8.653
Experimental: (§1) All tumor cell lines in the current research were grown in a certain growth medium containing 10% FBS and 1% (v/v/v) penicillin–streptomycin–amphotericin at 37 °C in 5% CO2. Cells were seeded into 96-well plates at a density of 8 × 10^3 cells per well for tumor adherent cells and 2 × 10^4 cells per well for tumor-suspended cells in a final volume of 100 μL. After 12 h, 100 μL of various concentrations of compounds was added to each and incubated for 48 h. A 0.5% MTT solution was added per well before the intermixture was incubated for another 4 h, and formazan formed from MTT was extracted by adding […] of DMSO rocking for 15 min. Absorbance was measured at 570 nm using a Spark multimode microplate from Tecan. The IC50 values were calculated according to the inhibition ratios.

A2780 = assay: Cell proliferation analysis (MTT); type: cell-based; details: Homo sapiens, 48 h, read-out: Anti-proliferative activity IC50, A2780
Experimental: as §1

ARP-1 = assay: Cell proliferation analysis (MTT); type: cell-based; details: 48 h, read-out: Anti-proliferative activity IC50, ARP-1
Experimental: as §1

HCT116 = assay: Cell proliferation analysis (MTT); type: cell-based; details: Homo sapiens, HCT-116, 48 h, read-out: Anti-proliferative activity IC50, HCT116
Experimental: as §1

HEL = assay: Cell proliferation analysis (MTT); type: cell-based; details: Homo sapiens, 48 h, read-out: Anti-proliferative activity IC50, HEL
Experimental: as §1

HT-29 = assay: Cell proliferation analysis (MTT); type: cell-based; details: Homo sapiens, 48 h, read-out: Anti-proliferative activity IC50, HT-29
Experimental: as §1

Hela = assay: Cell proliferation analysis (MTT); type: cell-based; details: Homo sapiens, 48 h, read-out: Anti-proliferative activity IC50, Hela
Experimental: as §1

KG1 = assay: Cell proliferation analysis (MTT); type: cell-based; details: Homo sapiens, KG-1, 48 h, read-out: Anti-proliferative activity IC50, KG1
Experimental: as §1

MDA-MB-231 = assay: Cell proliferation analysis (MTT); type: cell-based; details: Homo sapiens, 48 h, read-out: Anti-proliferative activity IC50, MDA-MB-231
Experimental: as §1

MM.1S = assay: Cell proliferation analysis (MTT); type: cell-based; details: Homo sapiens, MM1.S, 48 h, read-out: Anti-proliferative activity IC50, MM.1S
Experimental: as §1

PC3 = assay: Cell proliferation analysis (MTT); type: cell-based; details: Homo sapiens, PC-3, 48 h, read-out: Anti-proliferative activity IC50, PC3
Experimental: as §1

RPMI-8266 = assay: Cell proliferation analysis (MTT); type: cell-based; details: RPMI8266, 48 h, read-out: Anti-proliferative activity IC50, RPMI-8266
Experimental: as §1

SP2 = assay: Cell proliferation analysis (MTT); type: cell-based; details: 48 h, read-out: Anti-proliferative activity IC50, SP2
Experimental: as §1

U251 = assay: Cell proliferation analysis (MTT); type: cell-based; details: Homo sapiens, U-251, 48 h, read-out: Anti-proliferative activity IC50, U251
Experimental: as §1

U266 = assay: Cell proliferation analysis (MTT); type: cell-based; details: Homo sapiens, U-266, 48 h, read-out: Anti-proliferative activity IC50, U266
Experimental: as §1

[1] = tested on: cleaved caspase-3 in MM1.S cells; assay: Western blot analysis, caspase-3 cleavage; type: cell-based; details: MM1.S, 1, 2 and 4 µM, 24 h
Experimental: MM1.S cells were seeded in 6-well plates with a density of 2.5 × 10^6 cells/well. Then, the cells were cultured with 1, 2, and 4 μM BC-05 and 10 nM ixazomib, respectively. After incubation for 24 h, the cells were collected, and total proteins were extracted via RIPA containing a 2% protease inhibitor cocktail. Cell lysates were centrifugated at 4 °C, 12,000 rpm for 15 min, and the supernatants were collected and quantified with BCA assay. After being boiled at 100 °C for 10 min in a NuPAGE lithium dodecyl sulfate (LDS) sample buffer (5X), equivalent samples were separated by 12% sodium dodecyl-sulfate polyacrylamide gel electrophoresis at 120 V, transferred to immune-blot poly(vinylidene fluoride) (PVDF) membranes (Merck Millipore, Burlington, MA, USA) at 4 °C and then blocked by 5% non-fat milk in TBST for an hour. The membranes were incubated overnight at 4 °C with certain primary antibodies, which were deliquates by an antibody dilution buffer (Boster Bio, Pleasanton, CA, USA) and then washed with TBST. After incubating with a horseradish (HRP)-conjugated secondary antibody for 1 h at room temperature, the membranes were washed five times with TBST for 5 min. The images were visualized on the Tanon-5200 Chemiluminescent Imaging System via luminol reaction. […]

B16F10 cells = assay: Survival time in mice bearing B16F10 cells; type: in vivo, C57BL/6 mice; details: for median survival time (MST): twice a week for two weeks, vehicle group 16 days
Experimental: The animal experiments were conducted under the guidelines of the “Regulations for the Administration of Affairs Concerning Experimental Animals” (revised 2017, State Council No. 676). Female C57/B6 mice at 5 to 6 weeks were implanted via intraperitoneal (ip) injection with 5.0 × 10^6 B16F10 cells per individual and randomly assigned into control groups and treatment groups. Seven days after inoculation, mice from the control group were treated orally with DMSO in a vehicle, whereas the compound group mice were treated with specified concentrations of compounds by oral administration twice a week for two weeks. The survival percentage of the mice in each group was recorded and plotted. The anti-tumor activity of the drug was evaluated by measuring the median survival time (MST) for each group.

SMILES: CC(C)C[C@H](NC(=O)[C@@H](O)[C@H](N)Cc1ccccc1)B1OC(=O)C(CC(=O)O)(CC(=O)O)O1 [BC-05, 2,2′-(2-((R)-1-((2S,3R)-3-amino-2-hydroxy-4-phenylbutanamido)-3-methylbutyl)-5-oxo-1,3,2-dioxaborolane-4,4-diyl)diacetic acid]
- IC50 (P3x63Ag8.653): 17.7 ± 0.75 µM
- IC50 (A2780): 33.7 ± 0.99 µM
- IC50 (ARP-1): 10.2 ± 1.23 µM
- IC50 (HCT116): 86.7 ± 7.34 µM
- IC50 (HEL): 13.3 ± 2.81 µM
- IC50 (HT-29): 12.5 ± 1.21 µM
- IC50 (Hela): 83.1 ± 8.79 µM
- IC50 (KG1): 41.6 ± 4.11 µM
- IC50 (MDA-MB-231): 13.3 ± 0.49 µM
- IC50 (MM.1S): 1.53 ± 0.24 µM
- IC50 (PC3): 47.4 ± 4.22 µM
- IC50 (RPMI-8266): 15.1 ± 2.23 µM
- IC50 (SP2): 14.7 ± 4.91 µM
- IC50 (U251): 47.5 ± 11.9 µM
- IC50 (U266): 13.7 ± 1.43 µM
- Caspase-3 cleavage (Western blot) [1]: obvious
- MST increase compared to the vehicle group (B16F10 cells; 0.008 mmol/kg oral): 1.4 fold
- median survival time (MST) (B16F10 cells; 0.008 mmol/kg oral): 22 days
- MST increase compared to the vehicle group (B16F10 cells; 0.012 mmol/kg oral): 1.6 fold
- median survival time (MST) (B16F10 cells; 0.012 mmol/kg oral): 25 days
